# According to US11788147B2, “Markers of triple-negative breast cancer and uses thereof” (Vanderbilt University, priority 2011, dated 2023):
# Like-named read-outs stand apart in the source and are kept apart here.
# How the values were obtained:
# LAR TNBC cell lines = test: Cell proliferation/viability assay (alamarBlue) and IC50 determination; assay type: cell-based, human; conditions: 72 hours
# Description: (§1) Cell proliferation/viability assays and IC50 determinations. All cell lines and culture conditions used can be found in Supplemental Methods (Table 5). Short tandem repeat (STR) DNA fingerprinting analysis was performed on all TNBC cell lines used in this study (Cell Line Genetics). […] Breast cancer cell lines and HMECs were seeded (3,000-10,000 cells) in quadruplicate wells in 96-well plates. […] Medium was then replaced with either fresh medium (control) or medium containing half-log serial dilutions of the following drugs: 0.3-30 μM olaparib (ChemieTek), 0.3-30 μM veliparib (ChemieTek), 1-100 μM bicalutamide (IPR Pharmaceutical), 0.3-30 μM cisplatin (APP Pharmaceutical), 3-300 nM NVP-BEZ235 (Chemdea), 10-1000 nM 17-DMAG (ChemieTek), and 0.1-10 μM dasatinib (LC Laboratories). Viability was determined from measuring fluorescent intensity after metabolic reduction of alamarBlue in the presence/absence of the drug after 72 hours. Viability assays were performed in triplicate, and replicates were normalized to untreated wells. […] For analysis of cell-line drug assays, data generated from the different cell lines representative of TNBC subtypes were compared using the nonparametric Mann-Whitney U test. All analyses and graphic representations were performed using Prism software (version 4.0c; GraphPad Software), and values are represented as the mean±SEM.
# [1] = test system: mesenchymal-like (M and MSL) TNBC cell lines; test: as above; assay type: cell-based, human; conditions: 72 hours
# Description: (§2) Cell proliferation/viability assays and IC50 determinations. All cell lines and culture conditions used can be found in Supplemental Methods (Table 5). Short tandem repeat (STR) DNA fingerprinting analysis was performed on all TNBC cell lines used in this study (Cell Line Genetics). […] Breast cancer cell lines and HMECs were seeded (3,000-10,000 cells) in quadruplicate wells in 96-well plates. […] Viability was determined from measuring fluorescent intensity after metabolic reduction of alamarBlue in the presence/absence of the drug after 72 hours. Viability assays were performed in triplicate, and replicates were normalized to untreated wells. […] For analysis of cell-line drug assays, data generated from the different cell lines representative of TNBC subtypes were compared using the nonparametric Mann-Whitney U test. All analyses and graphic representations were performed using Prism software (version 4.0c; GraphPad Software), and values are represented as the mean±SEM.
# [2] = test system: mesenchymal-like TNBC cell lines; test: Cell proliferation/viability assay and IC50 determination (Example 3); assay type: cell-based, human; conditions: 72 hours; basal-like, mesenchymal-like and normal cells compared
# Description: Cell proliferation/viability assays and IC50 determinations. All cell lines were maintained in culture as previously described herein. Breast cancer cell lines and HMECs were seeded (3,000-10,000 cells) in quadruplicate wells in 96-well plates. Media was then replaced with either fresh media (control) or media containing half-log serial dilutions of the following drugs: Sorafenib, OSi-906, BMS-754807 and PF2341066 purchased from Selleck Chemicals (Houston, TX) Viability was determined from measuring fluorescent intensity after metabolic reduction of Alamar Blue in the presence/absence of drug after 72 hours. Viability assays were performed in triplicate and replicates were normalized to untreated wells. Inhibitory concentration (IC50) values were determined after double-log transformation of dose response curves.
# [3] = test system: CAL-148, MFM-223 and MDA-MB-453 cells; test: 3-D forced suspension viability assay; assay type: cell-based, human; conditions: increasing doses, alone, 72 h; to a lesser degree than in 2-D
# Description: CAL-148, MFM-223 and MDA-MB-453 cells were plated (10,000 cells/well) in quadruplicate into 96-well plates coated with 0.9% agarose diluted in corresponding media. Following 5 d of growth, cells were then treated with increasing half-log concentrations of GDC-0941 (10-3000 nM), GDC0980 (1 nM −300 nM), BKM120 (10 nM-3000 nM) and NVP-BEZ235 (1 nM-300 nM) alone or in combination with 25 μM bicalutamide (CDX) for an additional 72 h, upon which cells were imaged and viability determined by Alamar blue.
# [4] = test system: CAL-148 and MDA-MB-453 xenograft tumors; test: Xenograft tumor studies (Example 2); assay type: in vivo, mice; conditions: single agent alone; bicalutamide 100 mg/kg/d, GDC0980 7.5 mg/kg/d, NVP-BEZ235 50 mg/kg/d p.o.
# Description: Five-week-old female athymic nude-Foxnlnu mice (Harlan Sprague-Dawley) were injected (s.c.) with either ˜4×10^6 (CAL-148) or ˜10×10^6 (MDA-MB-453) cells suspended in media (200 μL) into each flank using a 22-gauge needle. Once tumors reached a volume of 25-50 mm^3, mice were randomly allocated to treatment or vehicle arms. Treatments included bicalutamide p.o. (100 mg/kg/d), GDC0980 p.o. (7.5 mg/kg/d) in 5% DMSO, 0.5% carboxymethyl cellulose (MCT) or NVP-BEZ235 p.o. (50 mg/kg/d) in 0.5% MCT or the combination of bicalutamide and either GDC-0980 or NVP-BEZ235 according to the above concentrations. Tumor diameters were serially measured at the indicated times with digital calipers and tumor volumes were calculated as width^2×length/2.
# MDA-MB-453 cells = test: Sub-G1 (sub 2N DNA) fraction by FACs analysis; assay type: cell-based, human
# Description: FIGS. 31A-31B: Combined inhibition of AR and PI3K increases apoptotic cell death in AR+TNBC cell lines. (31A) Bar graphs display relative caspase 3/7 activity (RLU) normalized to viable cell number 48 hrs after treatment with vehicle, positive control (3 μM adriamycin, ADR), 50 μM bicalutamide (CDX) and 3 μM GDC-0941 or 1 μM GDC-0980 alone or in combination with CDX. (31B) Histograms show representative cell cycle analysis of MDA-MB-453 cells treated with similar conditions as above. Indicated percentages represent the fraction of hypodiploid DNA (sub-G1), indicative of late stage apoptotic DNA fragmentation.
# In addition to caspase activation, the percentage of sub 2N DNA (sub-G1)-containing cells (indicative of late stage apoptotic DNA fragmentation) was quantitated by FACs analysis. […] Therefore, the decreased viability of AR-positive TNBC cell lines treated with a combination of AR and PI3K inhibitors can be, in part, attributed to apoptosis.
# [5] = test system: activated caspase 3/7 in AR-positive TNBC cell lines; test: Caspase 3/7 activity (Caspase-Glo); assay type: cell-based, human; conditions: 48 h; ADR 3 μM, bicalutamide 50 μM, GDC-0941 3 μM, GDC-0980 1 μM
# Description: Cell lines were seeded in triplicate in 96-well plates. Media was removed and replaced with media containing vehicle (control) or indicated drugs. After 48 hrs, apoptosis was determined by measuring luciferase from activated caspase 3/7 upon addition of Caspase-Glo reagent (Promega, Madison, WI). Relative levels of caspase activity were normalized to viable cell number determined by metabolic reduction of Alamar blue.
# [6] = test system: p-AKT, p-S6 and AR in AR-expressing TNBC cell lines; test: Immunoblot analysis of the PI3K/mTOR pathway and AR; assay type: cell-based, human; conditions: for activated AKT: 24 h or 48 h
# Description: Immunoblot analysis was performed on cell lystates from untreated cells or cells treated alone or in combination with CDX, GDC-0941 and GDC-0980 to evaluate attenuation of the PI3K/mTOR pathway. […] Cells were trypsinized, lysed and relative protein expression was determined by Western blot as previously described (JCI reference) with the following antibodies; the AR polyclonal antibody, SC-N20 (Santa Cruz Biotechnology), pS[…]/236 (Cell Signaling #4856), S6 (Cell Signaling #2317), pAKT-5473 (Cell Signaling #9271), AKT (Cell Signaling #9272), PARP (Cell Signaling #9542) and GAPDH (Millipore).
# [7] = test system: AR-expressing TNBC cell lines; test: Viability of AR-expressing TNBC cell lines, PI3K inhibitors alone or with bicalutamide (2-D); assay type: cell-based, human; conditions: alone, 72 h
# Description: All cell lines were maintained in culture as previously described (JCI ref). Breast cancer cell lines and HMECs were seeded (3,000-10,000 cells) in quadruplicate wells in 96-well plates. […] Viability was determined from measuring fluorescent intensity after metabolic reduction of Alamar Blue in the presence/absence of drug after 72 hours. Viability assays were performed in triplicate and replicates were normalized to untreated wells.
# [8] = test system: basal-like (BL1 and BL2) TNBC cell lines; test: Cell proliferation/viability assay (alamarBlue) and IC50 determination; assay type: cell-based, human
# Description: as §1
# TNBC cell lines = test: Cell proliferation/viability assay (alamarBlue), panel of TNBC cell lines (Example 1); assay type: cell-based, human
# Description: as §2
# [9] = test system: SUM185PE, CAL-148, CAL-51 and SUM159PT xenograft tumors; test: Xenograft tumor studies (Example 1), PIK3CA-mutant lines; assay type: in vivo, mice; conditions: NVP-BEZ235 per oral 50 mg/kg/d, approximately 3 weeks
# Description: Xenograft tumor studies. Five-week-old female athymic nude-Foxnlnu mice (Harlan Sprague-Dawley) were injected (s.c.) with either approximately 5×10^6 (CAL-51, HCC1806, MDA-MB-468, and SUM185PE) or approximately 10×10^6 (CAL-148 and SUM159PT) cells suspended in medium (200 μl) into each flank using a 22-gauge needle. […] Once tumors reached a volume of 25-50 mm^3, mice were randomly allocated to treatment or vehicle arms. Treatments included bicalutamide per oral (100 mg/kg/d), cisplatin i.p. (8 mg/kg/wk), or NVP-BEZ235 per oral (50 mg/kg/d) in 1:9 N-methylpyrolidone: PEG300. Tumor diameters were serially measured at the indicated times with digital calipers, and tumor volumes were calculated as width^2×length/2. Data points reflect the means and SEM for 16 tumors per treatment.
# [10] = test system: BRCA2-mutant cell line HCC1599; test: Cell proliferation/viability assay (alamarBlue) and IC50 determination; assay type: cell-based; conditions: Homo sapiens, 72 hours, viability
# Description: as §1
# [11] = test system: BRCA1-null cell line HCC1937; test: as above; assay type: cell-based; conditions: Homo sapiens, 72 hours, viability
# Description: as §1
# [12] = test system: BRCA1-mutant MDA-MB-436 cell line; test: as above; assay type: cell-based; conditions: Homo sapiens, 72 hours, viability
# Description: as §1
# [13] = 72 hours, read-out: average IC50
smiles,measurement,setting,value
Cc1nc(Nc2ncc(C(=O)Nc3c(C)cccc3Cl)s2)cc(N2CCN(CCO)CC2)n1 [dasatinib],IC50,"LAR TNBC cell lines; Homo sapiens, LAR lines",88 µM
same,IC50,"[1]; Homo sapiens, mesenchymal-like subtypes (M and MSL)",22 µM
C[C@]1(O)C[C@@H](c2nc(-c3ccc4ccc(-c5ccccc5)nc4c3)c3c(N)nccn32)C1 [OSI-906],viability (half-maximal inhibitory concentration) across TNBC subtypes,[2],selectively inhibits viability of mesenchymal-like TNBC cell lines
Cc1c(CN2CCN(C(=O)[C@H](C)O)CC2)sc2c(N3CCOCC3)nc(-c3cnc(N)nc3)nc12 [GDC-0980],cell aggregate size and viability,[3],decreased cell aggregate size and viability
same,tumor growth,[4],significantly decreased tumor growth
same,sub-G1 fraction,"MDA-MB-453 cells; 48 h, alone",higher sub-G1 fraction
same,caspase 3/7 activation,[5],caused caspase activation
same,activated AKT,[6],decreased activated AKT
same,AR levels,[6]; alone,decreased AR levels
same,mTOR activity as measured by levels of phosphorylated S6,[6]; compared with GDC-0941,more effective at decreasing mTOR activity
same,"viability, single agent",[7],displayed efficacy
COc1cccc2c1C(=O)c1c(O)c3c(c(O)c1C2=O)C[C@@](O)(C(=O)CO)C[C@@H]3O[C@H]1C[C@H](N)[C@H](O)[C@H](C)O1 [adriamycin],caspase 3/7 activation,[5],robust caspase activation
CS(=O)(=O)N1CCN(Cc2cc3nc(-c4cccc5[nH]ncc45)nc(N4CCOCC4)c3s2)CC1 [GDC-0941],cell aggregate size and viability,[3],decreased cell aggregate size and viability
same,sub-G1 fraction,"MDA-MB-453 cells; 48 h, alone",higher sub-G1 fraction
same,caspase 3/7 activation,[5],caused caspase activation
same,activated AKT,[6],decreased activated AKT
same,"viability, single agent",[7],displayed efficacy
Cn1c(=O)n(-c2ccc(C(C)(C)C#N)cc2)c2c3cc(-c4cnc5ccccc5c4)ccc3ncc21 [NVP-BEZ235],tumor growth,[4],significantly decreased tumor growth
same,IC50,[8]; [13],0.116 µM
same,IC50,"[8]; Homo sapiens, 72 h, read-out: average IC50",0.201 µM
same,IC50,"LAR TNBC cell lines; Homo sapiens, LAR cell lines",0.037 µM
same,sensitivity (viability),TNBC cell lines; TNBC cell lines with activated PI3K/AKT signaling due to PIK3CA mutations or PTEN deficiency,highly sensitive
same,xenograft tumor response,[9],partial response or complete
same,IC50,"[1]; Homo sapiens, mesenchymal-like cell lines",0.044 µM
O=C(c1cc(Cc2n[nH]c(=O)c3ccccc23)ccc1F)N1CCN(C(=O)C2CC2)CC1 [olaparib],IC50,[10],> 100 µM
same,IC50,[11],> 100 µM
same,IC50,[12],14 µM
C[C@@]1(C(=O)Nc2ccc(F)nc2)CCCN1c1nc(Nc2cc(C3CC3)n[nH]2)c2cccn2n1 [BMS-754807],viability (half-maximal inhibitory concentration) across TNBC subtypes,[2],selectively inhibits viability of mesenchymal-like TNBC cell lines
C[C@@H](Oc1cc(-c2cnn(C3CCNCC3)c2)cnc1N)c1c(Cl)ccc(F)c1Cl [PF2341066],viability (half-maximal inhibitory concentration) across TNBC subtypes,[2],selectively inhibits viability of mesenchymal-like TNBC cell lines
"CO[C@H]1/C=C\C=C(/C)C(=O)NC2=CC(=O)C(NCCN(C)C)=C(C[C@@H](C)C[C@H](OC)[C@H](O)[C@@H](C)/C=C(\C)[C@@H]1OC(N)=O)C2=O [17-DMAG, 17-dimethylaminoethylamino-17-demethoxy-geldanamycin]",IC50,[8]; [13],0.081 µM
same,IC50,LAR TNBC cell lines; LAR cell lines,0.016 µM
same,IC50,[1]; mesenchymal-like cell lines,0.117 µM
CC(O)(CS(=O)(=O)c1ccc(F)cc1)C(=O)Nc1ccc(C#N)c(C(F)(F)F)c1 (centres unmarked) [bicalutamide],IC50,"[8]; Homo sapiens, 72 h, read-out: IC50",> 600 µM
same,IC50,"LAR TNBC cell lines; Homo sapiens, LAR lines",227 µM
same,IC50,"TNBC cell lines; Homo sapiens, majority of TNBC cell lines, read-out: IC50 not achieved using the highest dose",> 500 µM
same,sub-G1 fraction,"MDA-MB-453 cells; 48 h after treatment, increase from 5.25%",18.44%
same,IC50,"[1]; Homo sapiens, subset of mesenchymal-like cell lines that express low levels of AR (HS578T, BT549, CAL-51, MDA-MB-231)",361 µM
CNC(=O)c1cc(Oc2ccc(NC(=O)Nc3ccc(Cl)c(C(F)(F)F)c3)cc2)ccn1 [sorafenib],viability (half-maximal inhibitory concentration) across TNBC subtypes,[2],selectively inhibits viability of mesenchymal-like TNBC cell lines
C[C@]1(c2nc3c(C(N)=O)cccc3[nH]2)CCCN1 [veliparib],IC50,[10],> 30 µM
same,IC50,[11],4 µM
same,IC50,[12],18 µM
